# Like-named read-outs stand apart in the source and are kept apart here.
# Tests used:
# OAT1 = OAT1 (Homo sapiens, UniProt Q4U2R8); assay: In vitro transporter studies: OAT1; type: in vitro ADME
# [1] = Phase 1 study of a single oral dose of voxelotor in subjects with hepatic impairment: whole blood and plasma PK; type: in vivo, human; settings: human; for half-life: read-out: t1/2, mean (converted); for Vd/F: read-out: Vz/F, GM (converted); for Tmax: read-out: tmax, median (converted)
# Protocol: A Phase 1, open-label study was performed to characterize pharmacokinetics (PK) and safety of a single oral dose of voxelotor in subjects with hepatic impairment. The study was to assess the effects of mild, moderate, or severe hepatic impairment on the PK of a single oral dose of voxelotor, to evaluate the safety and tolerability of a single oral dose of voxelotor in subjects with mild, moderate, or severe hepatic impairment, as well as to establish potential dose adjustment guidance based upon the degree of hepatic insufficiency. […] This study was designed to assess the effects of mild, moderate, or severe hepatic impairment on the PK of a single oral dose of voxelotor. Routine safety assessments (AE monitoring, vital signs, physical examinations, clinical laboratory tests, and ECGs) were performed. Eligible subjects received a single oral dose of voxelotor 1500 mg (5×300-mg capsules) on Day 1 (for normal hepatic function, mild and moderate hepatic impairment). […] No food was allowed for at least 4 hours postdose. No water or any type of liquid was allowed for 1 hour before dosing through 1-hour postdose with the exception of water consumed for dosing. Adverse events and concomitant medication use were monitored throughout the study. Safety assessments, including physical examinations, vital signs assessments, 12-lead ECGs, and clinical laboratory tests, were performed. Whole blood and plasma concentrations of voxelotor were determined using validated assays. […] Louis, Mo.) and actual sampling times. The following PK parameters were determined. To assess the effect of hepatic impairment on the PK of voxelotor, a linear mixed-effect model was fitted to the log-transformed values of whole blood and plasma Cmax, AUCt, and AUCinf. The model included hepatic impairment group as a fixed effect and age and weight as covariates. Point estimates and 90% CIs for hepatic function group differences (mild, moderate, and severe hepatically-impaired subjects [test] versus the normal hepatic function subjects [control]) on the log scale were exponentiated to obtain estimates for GM ratios on the original scale. Voxelotor whole blood and plasma concentrations were measured using a validated liquid chromatography-mass spectrometry method. The lower limit of assay quantitation for voxelotor was 10.0 ng/mL for whole blood and 5.00 ng/mL in plasma.
# [2] = plasma, po, 600 mg, plasma, severe hepatic impairment, 600 mg single oral dose
# [3] = plasma, po, 1500 mg, plasma, mild hepatic impairment, 1500 mg single oral dose
# [4] = plasma, po, 1500 mg, plasma, moderate hepatic impairment, 1500 mg single oral dose
# [5] = plasma, po, 1500 mg, plasma, normal hepatic function, 1500 mg single oral dose
# Sequence of OAT1 (Q4U2R8 whole entry): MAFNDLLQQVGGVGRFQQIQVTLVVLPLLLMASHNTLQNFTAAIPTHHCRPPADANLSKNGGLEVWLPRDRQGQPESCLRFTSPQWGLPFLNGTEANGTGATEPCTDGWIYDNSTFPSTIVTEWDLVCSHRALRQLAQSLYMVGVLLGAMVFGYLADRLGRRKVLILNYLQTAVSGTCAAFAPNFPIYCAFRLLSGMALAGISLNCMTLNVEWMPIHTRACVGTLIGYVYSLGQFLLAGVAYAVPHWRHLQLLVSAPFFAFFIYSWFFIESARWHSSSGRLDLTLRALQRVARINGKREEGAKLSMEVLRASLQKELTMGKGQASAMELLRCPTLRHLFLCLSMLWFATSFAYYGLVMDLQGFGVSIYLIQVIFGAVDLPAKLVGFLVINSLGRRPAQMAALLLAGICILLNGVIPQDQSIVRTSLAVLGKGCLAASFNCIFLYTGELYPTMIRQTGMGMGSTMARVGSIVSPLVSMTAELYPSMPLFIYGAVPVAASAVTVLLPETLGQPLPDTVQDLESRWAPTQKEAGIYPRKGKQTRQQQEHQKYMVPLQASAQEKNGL
smiles,measurement,setting,value
"CC(C)n1nccc1-c1ncccc1COc1cccc(O)c1C=O [voxelotor, 2-hydroxy-6-((2-(1-isopropyl-1H-pyrazol-5-yl)pyridin-3-yl)methoxy)benzaldehyde]",inhibition of OAT1,OAT1,not an inhibitor
same,half-life,"[1]; in vivo, plasma, mild hepatic impairment, 1500 mg single oral dose",71.4 h
same,AUC(0-inf),"[1]; plasma, oral, 600 mg, plasma, severe hepatic impairment (Test), 600 mg, adjusted for dose to 1500 mg, read-out: AUCinf, Geometric LS Mean",394 µg·h/mL
same,AUC(0-t),"[1]; plasma, oral, 600 mg, plasma, severe hepatic impairment (Test), 600 mg, adjusted for dose to 1500 mg, read-out: AUCt, Geometric LS Mean",388 µg·h/mL
same,Cmax,"[1]; plasma, oral, 600 mg, plasma, severe hepatic impairment (Test), 600 mg, adjusted for dose to 1500 mg, read-out: Cmax, Geometric LS Mean",2900 ng/mL
same,AUC(0-inf),"[1]; plasma, oral, 1500 mg, plasma, mild hepatic impairment (Test), 1500 mg, read-out: AUCinf, Geometric LS Mean",223 µg·h/mL
same,AUC(0-t),"[1]; plasma, oral, 1500 mg, plasma, mild hepatic impairment (Test), 1500 mg, read-out: AUCt, Geometric LS Mean",221 µg·h/mL
same,Cmax,"[1]; plasma, oral, 1500 mg, plasma, mild hepatic impairment (Test), 1500 mg, read-out: Cmax, Geometric LS Mean",2360 ng/mL
same,AUC(0-inf),"[1]; plasma, oral, 1500 mg, plasma, moderate hepatic impairment (Test), 1500 mg, read-out: AUCinf, Geometric LS Mean",240 µg·h/mL
same,AUC(0-t),"[1]; plasma, oral, 1500 mg, plasma, moderate hepatic impairment (Test), 1500 mg, read-out: AUCt, Geometric LS Mean",245 µg·h/mL
same,Cmax,"[1]; plasma, oral, 1500 mg, plasma, moderate hepatic impairment (Test), 1500 mg, read-out: Cmax, Geometric LS Mean",3030 ng/mL
same,AUC(0-inf),"[1]; plasma, oral, 1500 mg, plasma, normal hepatic function (Reference), 1500 mg, read-out: AUCinf, Geometric LS Mean",204 µg·h/mL
same,AUC(0-t),"[1]; plasma, oral, 1500 mg, plasma, normal hepatic function (Reference), 1500 mg, read-out: AUCt, Geometric LS Mean",203 µg·h/mL
same,Cmax,"[1]; plasma, oral, 1500 mg, plasma, normal hepatic function (Reference), 1500 mg, read-out: Cmax, Geometric LS Mean",2010 ng/mL
same,AUC(0-t),"[1]; plasma, po, 600 mg, plasma, severe hepatic impairment, 600 mg single oral dose, adjusted for dose to 1500 mg, read-out: AUC0-96, GM (converted)",177 µg·h/mL
same,AUC(0-inf),"[1]; plasma, po, 600 mg, plasma, severe hepatic impairment, 600 mg single oral dose, adjusted for dose to 1500 mg, read-out: AUCinf, GM (converted)",393 µg·h/mL
same,AUC(0-t),"[1]; plasma, po, 600 mg, plasma, severe hepatic impairment, 600 mg single oral dose, adjusted for dose to 1500 mg, read-out: AUCt, GM (converted)",386 µg·h/mL
same,Cmax,"[1]; plasma, po, 600 mg, plasma, severe hepatic impairment, 600 mg single oral dose, adjusted for dose to 1500 mg, read-out: Cmax, GM (converted)",2960 ng/mL
same,Vd/F,[1]; [2],592 L
same,half-life,[1]; [2],109 h
same,Tmax,[1]; [2],4 h
same,AUC(0-t),"[1]; plasma, po, 1500 mg, plasma, mild hepatic impairment, 1500 mg single oral dose, read-out: AUC0-96, GM (converted)",143 µg·h/mL
same,AUC(0-inf),"[1]; plasma, po, 1500 mg, plasma, mild hepatic impairment, 1500 mg single oral dose, read-out: AUCinf, GM (converted)",224 µg·h/mL
same,AUC(0-t),"[1]; plasma, po, 1500 mg, plasma, mild hepatic impairment, 1500 mg single oral dose, read-out: AUCt, GM (converted)",223 µg·h/mL
same,Cmax,"[1]; plasma, po, 1500 mg, plasma, mild hepatic impairment, 1500 mg single oral dose, read-out: Cmax, GM (converted)",2390 ng/mL
same,Vd/F,[1]; [3],674 L
same,Tmax,[1]; [3],4 h
same,AUC(0-t),"[1]; plasma, po, 1500 mg, plasma, moderate hepatic impairment, 1500 mg single oral dose, read-out: AUC0-96, GM (converted)",146 µg·h/mL
same,AUC(0-inf),"[1]; plasma, po, 1500 mg, plasma, moderate hepatic impairment, 1500 mg single oral dose, read-out: AUCinf, GM (converted)",244 µg·h/mL
same,AUC(0-t),"[1]; plasma, po, 1500 mg, plasma, moderate hepatic impairment, 1500 mg single oral dose, read-out: AUCt, GM (converted)",252 µg·h/mL
same,Cmax,"[1]; plasma, po, 1500 mg, plasma, moderate hepatic impairment, 1500 mg single oral dose, read-out: Cmax, GM (converted)",2910 ng/mL
same,Vd/F,[1]; [4],789 L
same,half-life,[1]; [4],90 h
same,Tmax,[1]; [4],5 h
same,AUC(0-t),"[1]; plasma, po, 1500 mg, plasma, normal hepatic function, 1500 mg single oral dose, read-out: AUC0-96, GM (converted)",120 µg·h/mL
same,AUC(0-inf),"[1]; plasma, po, 1500 mg, plasma, normal hepatic function, 1500 mg single oral dose, read-out: AUCinf, GM (converted)",200 µg·h/mL
same,AUC(0-t),"[1]; plasma, po, 1500 mg, plasma, normal hepatic function, 1500 mg single oral dose, read-out: AUCt, GM (converted)",199 µg·h/mL
same,Cmax,"[1]; plasma, po, 1500 mg, plasma, normal hepatic function, 1500 mg single oral dose, read-out: Cmax, GM (converted)",2010 ng/mL
same,Vd/F,[1]; [5],865 L
same,half-life,[1]; [5],80.8 h
same,Tmax,[1]; [5],4 h
same,AUC(0-inf),"[1]; whole blood, oral, 600 mg, whole blood, severe hepatic impairment (Test), 600 mg, adjusted for dose to 1500 mg, read-out: AUCinf, Geometric LS Mean",13600 µg·h/mL
same,AUC(0-t),"[1]; whole blood, oral, 600 mg, whole blood, severe hepatic impairment (Test), 600 mg, adjusted for dose to 1500 mg, read-out: AUCt, Geometric LS Mean",13300 µg·h/mL
same,Cmax,"[1]; whole blood, oral, 600 mg, whole blood, severe hepatic impairment (Test), 600 mg, adjusted for dose to 1500 mg, read-out: Cmax, Geometric LS Mean",85400 ng/mL
same,AUC(0-inf),"[1]; whole blood, oral, 1500 mg, whole blood, mild hepatic impairment (Test), 1500 mg, read-out: AUCinf, Geometric LS Mean",8160 µg·h/mL
same,AUC(0-t),"[1]; whole blood, oral, 1500 mg, whole blood, mild hepatic impairment (Test), 1500 mg, read-out: AUCt, Geometric LS Mean",8120 µg·h/mL
same,Cmax,"[1]; whole blood, oral, 1500 mg, whole blood, mild hepatic impairment (Test), 1500 mg, read-out: Cmax, Geometric LS Mean",72900 ng/mL
same,AUC(0-inf),"[1]; whole blood, oral, 1500 mg, whole blood, moderate hepatic impairment (Test), 1500 mg, read-out: AUCinf, Geometric LS Mean",8230 µg·h/mL
same,AUC(0-t),"[1]; whole blood, oral, 1500 mg, whole blood, moderate hepatic impairment (Test), 1500 mg, read-out: AUCt, Geometric LS Mean",8190 µg·h/mL
same,Cmax,"[1]; whole blood, oral, 1500 mg, whole blood, moderate hepatic impairment (Test), 1500 mg, read-out: Cmax, Geometric LS Mean",64900 ng/mL
same,AUC(0-inf),"[1]; whole blood, oral, 1500 mg, whole blood, normal hepatic function (Reference), 1500 mg, read-out: AUCinf, Geometric LS Mean",7150 µg·h/mL
same,AUC(0-t),"[1]; whole blood, oral, 1500 mg, whole blood, normal hepatic function (Reference), 1500 mg, read-out: AUCt, Geometric LS Mean",7130 µg·h/mL
same,Cmax,"[1]; whole blood, oral, 1500 mg, whole blood, normal hepatic function (Reference), 1500 mg, read-out: Cmax, Geometric LS Mean",61400 ng/mL
same,AUC(0-t),"[1]; whole blood, po, 600 mg, whole blood, severe hepatic impairment, 600 mg single oral dose, adjusted for dose to 1500 mg, read-out: AUC0-96, GM (converted)",6050 µg·h/mL
same,AUC(0-inf),"[1]; whole blood, po, 600 mg, whole blood, severe hepatic impairment, 600 mg single oral dose, adjusted for dose to 1500 mg, read-out: AUCinf, GM (converted)",13600 µg·h/mL
same,AUC(0-t),"[1]; whole blood, po, 600 mg, whole blood, severe hepatic impairment, 600 mg single oral dose, adjusted for dose to 1500 mg, read-out: AUCt, GM (converted)",13300 µg·h/mL
same,Cmax,"[1]; whole blood, po, 600 mg, whole blood, severe hepatic impairment, 600 mg single oral dose, adjusted for dose to 1500 mg, read-out: Cmax, GM (converted)",86600 ng/mL
same,Vd/F,"[1]; whole blood, po, 600 mg, whole blood, severe hepatic impairment, 600 mg single oral dose",17.6 L

# Source: patent US20230015823A1, “METHODS OF ADMINISTERING VOXELOTOR” (Global Blood Therapeutics, Inc., priority 2019, published 2023)
